Data published in patent US20150005379A1, “[…] METHOD” (PeroxyChem LLC, priority 2013, published 2015).

Test system: fecal coliform
Assay: Fecal coliform count of wastewater at the contact chamber exit after peracetic acid dosing
Type: cell-based
Details: post-sand filter wastewater, 60 min average contact time
Description: Wastewater was diverted post-sand filter treatment at a wastewater treatment plant into a rectangular weir disinfectant contact chamber. The flow rate of wastewater through the contact chamber was set at seven gallons per minute; the average contact time in the contact chamber was 60 minutes.
VigorOx® WWT peracetic acid (FMC Corporation; 15% peracetic acid, 23% hydrogen peroxide by weight) was dosed into the wastewater through Control Corporation lab grade pumps. In Comparative Experiment A, the PAA was introduced just prior to the wastewater's entrance into the contact chamber at a rate of 6.1 ppm. In Example 1, PAA was introduced just prior to the wastewater's entrance into the contact chamber at a rate of 1.5 ppm; and additionally at a point 50 minutes after the wastewater's entry into the contact chamber at a rate of 4.5 ppm. The fecal coliform count of the wastewater was measured at the point the wastewater exited from the contact chamber.

CC(=O)OO [PAA, peracetic acid]
samples tested with no-detectable readings of coliform bacteria (Comparative Experiment A: PAA added at a sole point just prior to entrance into contact chamber, 6.1 ppm): about 35%
samples tested with no-detectable readings of coliform bacteria (Example 1: PAA added at two points, 1.5 ppm just prior to entrance and 4.5 ppm at 50 minutes after entry): about 50%
